Patent US20170121344A1 (Siga Technologies, Inc., priority 2009, published 2017)
Where two headings read alike, the source gives them in different places.

System: Dengue-2 (Strain New Guinea C)
Assay: Viral yield assay against Dengue-2 in Vero cells
Format: cell-based, Dengue virus
Conditions: Dengue virus
Procedure, shortened: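 Infect Vero cells with virus (MOI 0.1), add compound or DMSO, incubate at 37° C, collect progeny at 48 hours post infection, then titrate on Vero cells to obtain EC50.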

[1] = Vero cells, MOI 0.1, harvested 48 hours post infection, read-out: Activity (EC50 class) against Dengue-2 Virus in Vero cells
[2] = Vero, 48 h, read-out: Activity (EC50 class) against Dengue-2 Virus in Vero cells
[3] = DENV2, viral yield assay, Vero cells, MOI 0.1, 48 hours post infection, read-out: Activity (EC50 in μM) DENV-2
[4] = DENV2, Vero, 48 h, read-out: Activity (EC50 in μM) DENV-2

SMILES: CCN1CCc2nc3sc(C(=O)Nc4ccc(C(F)(F)F)cc4)c(N)c3cc2C1 [Compound 21, 3-Amino-6-ethyl-5,6,7,8-tetrahydro-thieno[2,3-b][1,6]naphthyridine-2-carboxylic acid (4-trifluoromethyl-phenyl)-amide]
- EC50 [1]: < 5 µM

SMILES: Nc1c(C(=O)Nc2ccc(F)cc2)sc2nc3c(cc12)CCC3 [Compound 177, 3-Amino-6,7-dihydro-5H-cyclopenta[b]thieno[3,2-e]pyridine-2-carboxylic acid (4-fluoro-phenyl)-amide]
- EC50 [1]: > 25 µM

SMILES: COCc1cc(C)nc2sc(C(=O)NC3CCCCC3)c(N)c12 [Compound 176, 3-Amino-4-methoxymethyl-6-methyl-thieno[2,3-b]pyridine-2-carboxylic acid cyclohexylamide]
- EC50 [2]: > 25 µM

SMILES: CN(C)CCN(C(=O)c1sc2nc(-c3cccs3)ccc2c1N)c1cccc(C(F)(F)F)c1 [Compound 323, 3-amino-N-(2-dimethylaminoethyl)-6-(2-thienyl)-N-[3-(trifluoromethyl)phenyl]thieno[2,3-b]pyridine-2-carboxamide]
- EC50 [3]: < 5 µM

SMILES: CN(C)CC(=O)Nc1c(C(=O)Nc2cccc(C(F)(F)F)c2)sc2nc(-c3cccs3)ccc12 [Compound 308, 3-[[2-(dimethylamino)acetyl]amino]-6-(2-thienyl)-N-[3-(trifluoromethyl)phenyl]thieno[2,3-b]pyridine-2-carboxamide]
- EC50 (DENV2, Vero cells, read-out: Activity (EC50 in μM) DENV-2): < 5 µM

SMILES: Cc1cc(C)c2c(N)c(C(=O)N3CCOCC3)sc2n1 [Compound 145, (3-Amino-4,6-dimethyl-thieno[2,3-b]pyridin-2-yl)-morpholin-4-yl-methanone]
- EC50 [1]: > 25 µM

SMILES: COCc1cc(C)nc2sc(C(=O)N(c3ccccc3)c3ccccc3)c(N)c12 [Compound 140, 3-Amino-4-methoxymethyl-6-methyl-thieno[2,3-b]pyridine-2-carboxylic acid diphenylamide]
- EC50 [2]: > 25 µM

SMILES: COCc1cc(C)nc2sc(C(=O)Nc3cc(Cl)ccc3Cl)c(N)c12 [Compound 211, 3-Amino-4-methoxymethyl-6-methyl-thieno[2,3-b]pyridine-2-carboxylic acid (2,5-dichloro-phenyl)-amide]
- EC50 [1]: > 25 µM

SMILES: Cc1ccc(NC(=O)c2sc3nc(-c4ccc(F)cc4)ccc3c2N)c(C)c1 [Compound 614, 3-amino-N-(2,4-dimethylphenyl)-6-(4-fluorophenyl)thieno[2,3-b]pyridine-2-carboxamide]
- EC50 [3]: < 5 µM

SMILES: CC(C)N1CCc2nc3sc(C(=O)NCc4ccc5c(c4)OCO5)c(N)c3cc2C1 [Compound 26, 3-Amino-6-isopropyl-5,6,7,8-tetrahydro-thieno[2,3-b][1,6]naphthyridine-2-carboxylic acid (benzo[1,3]dioxol-5-ylmethyl)-amide]
- EC50 [2]: < 5 µM

SMILES: Cc1ccc(C)c(NC(=O)c2sc3nc(-c4ccc5c(c4)OCO5)ccc3c2N)c1 [Compound 588, 3-amino-6-(1,3-benzodioxol-5-yl)-N-(2,5-dimethylphenyl)thieno[2,3-b]pyridine-2-carboxamide]
- EC50 [3]: < 5 µM

SMILES: O=C(Nc1nccs1)c1sc2nc(N3CCOCC3)cc(-c3ccccc3)c2c1O [Compound 384, 3-hydroxy-6-morpholino-4-phenyl-N-thiazol-2-yl-thieno[2,3-b]pyridine-2-carboxamide]
- EC50 [3]: 5 to 25 µM

SMILES: COc1ccc(NC(=O)c2sc3nc(-c4cccs4)ccc3c2N)cc1OC [Compound 444, 3-amino-N-(3,4-dimethoxyphenyl)-6-(2-thienyl)thieno[2,3-b]pyridine-2-carboxamide]
- EC50 [4]: < 5 µM

SMILES: COc1ccc(-c2ccc3c(N)c(C(=O)Nc4ccc(F)cc4Cl)sc3n2)cc1OC [Compound 539, 3-amino-N-(2-chloro-4-fluoro-phenyl)-6-(3,4-dimethoxyphenyl)thieno[2,3-b] pyridine-2-carboxamide]
- EC50 [3]: < 5 µM

SMILES: COc1cccc(-c2ccc3c(N)c(C(=O)Nc4ccc(C(C)=O)cc4)sc3n2)c1 [Compound 513, N-(4-acetylphenyl)-3-amino-6-(3-methoxyphenyl)thieno[2,3-b]pyridine-2-carboxamide]
- EC50 [4]: < 5 µM
